pIC50: −log10 of the molar value. Active and inactive are the calls of the source. No rule for the calls is given here.
molecular target: Hepatocyte nuclear factor 4-alpha (Homo sapiens) (UniProt P41235); assay: HNF4 dimerization inhibitors, potency, dose response, counter-screen for ABHD5-PLIN5 interaction inhibitor project, biochemical, luminescence, late stage (AID 651760); conditions: luminescence biochemical assay
Sequence (P41235 whole entry, looked up): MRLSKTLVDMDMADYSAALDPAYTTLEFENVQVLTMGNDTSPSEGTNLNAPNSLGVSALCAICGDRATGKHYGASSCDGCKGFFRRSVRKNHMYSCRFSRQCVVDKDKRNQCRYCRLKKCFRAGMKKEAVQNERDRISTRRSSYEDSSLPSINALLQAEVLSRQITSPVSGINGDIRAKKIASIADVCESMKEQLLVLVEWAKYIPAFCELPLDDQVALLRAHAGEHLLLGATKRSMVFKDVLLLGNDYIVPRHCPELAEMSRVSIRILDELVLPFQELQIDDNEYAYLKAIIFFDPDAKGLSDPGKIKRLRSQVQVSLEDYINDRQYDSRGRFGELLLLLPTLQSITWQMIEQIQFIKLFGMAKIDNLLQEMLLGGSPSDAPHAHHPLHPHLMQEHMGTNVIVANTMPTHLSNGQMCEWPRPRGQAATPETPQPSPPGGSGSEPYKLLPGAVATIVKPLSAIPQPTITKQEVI

IC50 | pIC50 | Structure (SMILES)
inactive |  | NC(=NCCCCCCN=C(N)/N=C(\N)Nc1ccc(Cl)cc1)/N=C(\N)Nc1ccc(Cl)cc1
> 39.8 µM (inactive) |  | CN1CCC(=C2c3ccccc3CC(=O)c3sccc32)CC1
> 39.8 µM (inactive) |  | CC1CCN(S(=O)(=O)c2ccc(NC(=O)Cc3ccccc3)cc2)CC1
> 39.8 µM (inactive) |  | C=C[C@]1(C)C[C@@H](OC(=O)CSCCN(CC)CC)[C@]2(C)C(C)CC[C@]3(CCC(=O)[C@H]32)[C@@H](C)[C@@H]1O (stereo not given in full)
> 39.8 µM (inactive) |  | CCN(CC)CCNC(=O)c1ccc(NC(=O)c2cn(-c3ccccc3)nc2-c2cccs2)cc1
 | 5.38 | CCOc1cc(N)c(Cl)cc1C(=O)NCC1CN(Cc2ccc(F)cc2)CCO1 (stereo not given)
> 39.8 µM (inactive) |  | CC1CCN(S(=O)(=O)c2ccc(NC(=O)Cc3cccs3)cc2)CC1
> 39.8 µM (inactive) |  | FC(F)(F)c1cccc(NC(=S)N(CCCN2CCCC2)Cc2cccn2Cc2ccc(Cl)cc2)c1
> 39.8 µM (inactive) |  | CCCNC(=O)Nc1ccc2c(c1)N(C)C(=O)c1ccccc1S2
> 39.8 µM (inactive) |  | CN(C)CCCN(C(=O)CCc1ccccc1)c1nc2ccc(Cl)cc2s1
> 39.8 µM (inactive) |  | CCCCNC(=O)Nc1ccc2c(c1)N(C)C(=O)c1ccccc1S2
inactive |  | COc1ccc(C)c2sc(N(CCN(C)C)C(=O)/C=C/c3cccs3)nc12
 | 5.05 | CCOC(=O)c1c(NC(=O)/C=C/C(=O)O)sc(C)c1-c1ccc(C(C)(C)C)cc1
 | 5.09 | CC(=O)Cc1cc(O)c2ccccc2c1OC(=O)c1ccccc1
> 39.8 µM (inactive) |  | Cc1cc(C)c(NC(=O)CN2CCN3CCCC3C2)c(C)c1 (stereo not given)
> 39.8 µM (inactive) |  | CN(C)CCCN(C(=O)CCc1ccccc1)c1nc2ccc(Br)cc2s1
inactive |  | CC1=CC(C)(C)Nc2ccc(OC(=O)C(C)N3C(=O)c4ccccc4C3=O)cc21 (stereo not given)
> 39.8 µM (inactive) |  | COc1cc(C)c2sc3ccccc3c(=O)c2c1NCCN(C)C
> 39.8 µM (inactive) |  | CCCCOC(=O)Nc1cc(C(=O)OC)ccc1C(=O)OC
> 39.8 µM (inactive) |  | CC(=O)Nc1ccc(S(=O)(=O)N2c3ccc(F)cc3CCC2C)cc1 (stereo not given)

IC50 | pIC50 | Structure (SMILES)
 | 5.29 | CCN(CC)CCOc1ccc(/C(=C(/Cl)c2ccccc2)c2ccccc2)cc1
> 39.8 µM (inactive) |  | O=C(C[n+]1cccc(CNC(=O)c2ccc(OC(F)F)cc2)c1)Nc1cccc(C(F)(F)F)c1
> 39.8 µM (inactive) |  | COc1ccc(NC(=S)N(CCCN2CCCC2)Cc2cccn2Cc2ccc(Cl)cc2)cc1Cl
> 39.8 µM (inactive) |  | CCN(CC)CCN(CC(=O)Nc1c(C)cc(C)cc1C)C(=O)c1ccccc1
> 39.8 µM (inactive) |  | O=c1[nH]c(C2CCN(S(=O)(=O)c3ccc(S(=O)(=O)NC4CC4)cc3)CC2)nc2c1nnn2Cc1ccc(F)cc1
> 39.8 µM (inactive) |  | Cc1nc2c(o1)CCc1ccccc1C2N1CCN(C)CC1 (stereo not given)
> 39.8 µM (inactive) |  | COc1ccccc1-c1cc(C(=O)NC2CCN(C)CC2)c2ccc(Cl)c(C)c2n1
> 39.8 µM (inactive) |  | O=c1[nH]c(C2CCN(S(=O)(=O)c3ccc(F)cc3)CC2)nc2c1nnn2Cc1ccc2c(c1)OCCO2
> 39.8 µM (inactive) |  | CN(C)CCN(Cc1ccco1)c1ccccn1
> 39.8 µM (inactive) |  | CN(C)CCOC1(Cc2ccc(F)cc2)CCC(C(C)(C)C)CC1 (stereo not given)
> 39.8 µM (inactive) |  | COc1cc(OC)cc(C(=O)NC(=S)N(Cc2ccccc2)C(C)C)c1
inactive |  | O=C(/C(=C/O)N=Nc1ccc(Cl)cc1)c1ccncc1
> 39.8 µM (inactive) |  | COCCN(CCOC)c1nc(N)c2c(N)nc3c(c2c1C#N)CC(=O)N3Cc1ccc(Cl)cc1
> 39.8 µM (inactive) |  | COc1cc2c(cc1OC)C(C)N(CCc1ccc(Cl)cc1)CC2 (stereo not given)
 | 5.22 | CCN(CC)CCOCCOC(=O)C1(c2ccccc2)CCCC1
inactive |  | CC(=O)Cc1cc(O)c2ccccc2c1OC(=O)c1ccc(Br)cc1
 | 5.55 | CC(C)c1ccc(N2C=Nc3ccc(C(C)C)cc3C2)cc1
inactive |  | CCOC(=O)c1c(NC(C)=O)sc2c1CCC(C=O)=C2Sc1ccccc1
inactive |  | Cc1ccc2nc3cc([N+](=O)[O-])cc([N+](=O)[O-])c3cc2c1
 | 5.25 | CCN(CC)CCC(C)OC(c1ccccc1)c1ccccc1 (stereo not given)
